“Also recorded” adds a separate entry of the source. Read-outs that look alike come from different tables or passages of the source. A value given as a limit tells only on which side of the number the result lay.

Series [1] relates to scn1lab mutant zebrafish. Kind of series: local field potential (LFP) electrophysiology, electrographic seizure events. It counts as in vivo, Danio rerio. As to the method: Using a glass micro-electrode positioned under an upright microscope, local field potential (LFP) recordings were obtained from forebrain or optic tectum structures, as described ([Baraban et al., 2005]). Agarose-embedded LFP recording sessions (10 min in duration) were obtained using Axoclamp software (Molecular Devices; Sunnyvale, CA, USA) and sampled at 1 kHz. Epileptiform events were identified post hoc. These were classified as multi-spike or poly-spike upward or downward membrane deflections greater than 3× baseline noise level and 150–250 ms in duration (interictal-like) or greater than 5× baseline noise, multi-spike and >500 ms in duration (ictal-like); both events were counted using threshold detection settings in Clampfit (Molecular Devices; Sunnyvale, CA, USA). Agarose-embedded larvae were continuously monitored for blood flow and heart rate using an Axiocam digital camera at video frame rate.
Monitoring electrographic brain activity to confirm seizure suppression is an essential assay to eliminate false positives from behavioural testing ([Griffin et al., 2018]). By placing a micro-electrode into a visually identified brain region of an agar-immobilized zebrafish larval, stable LFP recordings can be monitored for several hours ([Baraban, 2013]). At 5 days post-fertilization, LFP recordings of scn1Lab zebrafish larvae show an average of 250 abnormal electrographic seizure events during a 10 min recording epoch.

Series [2] has as its target T1, human 5-HT2CR (Homo sapiens, UniProt P28335).
T1 sequence (P28335 33-458): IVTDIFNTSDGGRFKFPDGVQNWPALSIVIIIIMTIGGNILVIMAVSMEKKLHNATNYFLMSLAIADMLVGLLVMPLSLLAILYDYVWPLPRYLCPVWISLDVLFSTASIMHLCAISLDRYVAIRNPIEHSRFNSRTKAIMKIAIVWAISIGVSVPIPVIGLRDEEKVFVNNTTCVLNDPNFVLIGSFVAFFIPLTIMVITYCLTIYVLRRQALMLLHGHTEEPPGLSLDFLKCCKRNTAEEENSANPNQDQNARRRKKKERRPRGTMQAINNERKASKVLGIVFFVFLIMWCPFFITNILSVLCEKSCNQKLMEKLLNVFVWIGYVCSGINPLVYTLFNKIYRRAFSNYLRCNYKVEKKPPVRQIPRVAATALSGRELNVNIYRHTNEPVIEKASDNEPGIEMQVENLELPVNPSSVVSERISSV
The following applies: commercially available compounds known to bind 5-HT2BR; ref Roth et al., 2000; read-out: 5-HT2CR (nM), Table S3; cited from earlier work.

Series [3] concerns scn1lab mutant zebrafish. The series is described as follows: locomotion (mean swim velocity) seizure-like behaviour assay in scn1lab mutant zebrafish larvae. The following applies: for effect on seizure-like swim behaviour, commercially available compounds: three concentrations, 30 and 90 min exposure; for change in vivo at 100 µM / change in vivo at 250 µM: Danio rerio. It counts as in vivo, Danio rerio. The method, boiled down: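 Scn1lab mutant larvae at 5 dpf, one per well in embryo media, acclimated 20 min at room temperature, then tracked 10 min for distance travelled and mean velocity. A ≥40% change in mean swim velocity counted as significant. Toxicity (heartbeat, touch escape response) checked after 90 min drug exposure.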

Series [4] addresses T2, human 5-HT2BR (Homo sapiens, UniProt P41595). As to conditions: commercially available compounds known to bind 5-HT2BR; ref Roth et al., 2000; read-out: 5-HT2BR (nM), Table S3; cited from earlier work.
For series [5], the target named is T3, human 5-HT2AR (Homo sapiens, UniProt P28223). As to conditions: cited from earlier work.
T3 sequence (P28223 whole entry): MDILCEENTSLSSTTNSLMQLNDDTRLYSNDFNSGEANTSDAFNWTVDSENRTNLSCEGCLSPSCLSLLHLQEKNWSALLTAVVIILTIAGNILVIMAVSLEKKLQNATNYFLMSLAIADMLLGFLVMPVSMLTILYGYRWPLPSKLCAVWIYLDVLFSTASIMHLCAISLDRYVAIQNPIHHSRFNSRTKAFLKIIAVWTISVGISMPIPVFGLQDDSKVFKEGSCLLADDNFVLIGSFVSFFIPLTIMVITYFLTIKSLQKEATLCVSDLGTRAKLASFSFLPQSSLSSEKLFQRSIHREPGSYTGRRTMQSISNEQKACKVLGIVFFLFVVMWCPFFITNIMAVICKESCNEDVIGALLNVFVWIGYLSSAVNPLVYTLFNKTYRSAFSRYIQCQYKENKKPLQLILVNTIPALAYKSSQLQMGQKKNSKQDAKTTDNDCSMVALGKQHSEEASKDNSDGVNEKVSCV
The target in series [6] is T1, human 5-HT2CR. The series is described as follows: radioligand binding (NIMH PDSP). As to the method:
(§1) All in vitro binding assay and Ki data studies were performed by the US National Institute of Mental Health Psychoactive Drug Screening Program (NIMH PDSP). For these studies, drugs were screened against recombinant, stably expressed human 5-HT2AR, 5-HT2BR, 5-HT2CR and H1, as described at https://pdspdb.unc.edu/pdspWeb/ ([Besnard et al., 2012]).

In series [7] the target is T2, human 5-HT2BR. Kind of series: radioligand binding (NIMH PDSP). The following applies: read-out: Ki 5-HT2BR. As to the method: as §1
For series [8], the target named is T3, human 5-HT2AR. Kind of series: radioligand binding (NIMH PDSP). As to the method: as §1
The target in another series is human H1 (Homo sapiens, UniProt P35367). The series is described as follows: radioligand binding (NIMH PDSP). As to conditions: read-out: Ki H1. As to the method:
as §1

Series [9] in a line: dissolution of compound at screening concentration. As to conditions: 250 µM.
Source text: Ten millimolars of compound stock solutions were made in dimethyl sulfoxide and then diluted in embryo medium for assays.
The subject of another series is human 5-HT2R. Kind of series: radioligand binding (NIMH PDSP), any 5-HT2R subtype. The following applies: 5-HT2AR, 5-HT2BR, 5-HT2CR. As to the method: as §1
Additionally, 5-HT2R modulating compounds exert antiepileptic activity in both preclinical ([Sourbron et al., 2016]; [Griffin et al., 2017]) and clinical studies ([Griffin et al., 2017]; [Schoonjans et al., 2017]; [Kauppila et al., 2018]). […] […].

The target in a further series is Adrenergic alpha1B. The following applies: known drugs of Table 1; reference not given; cited from earlier work.
The subject of series [10] is scn1lab mutant zebrafish. More on the design: method as in Dinday and Baraban, 2015; Sourbron et al., 2016. As to conditions: ref Dinday and Baraban, 2015; Sourbron et al., 2016; cited from earlier work.
The conditions of series [11]: use as anorectic; ref Abenhaim et al., 1996; Khan et al., 1998; cited from earlier work.
For the next series, the target named is 5-HT7. As to conditions: known drugs of Table 1; reference not given; cited from earlier work.
The next series deals with 5-HT1B. The following applies: known drugs of Table 1; reference not given; cited from earlier work.
Another series deals with 5-HT1D. The following applies: known drugs of Table 1; reference not given; cited from earlier work.
The target in a further series is 5-HT6. The following applies: known drugs of Table 1; reference not given; cited from earlier work.
The next series concerns the target 5-HT transporter. As to conditions: known drugs of Table 1; reference not given; cited from earlier work.
A further series deals with 5-HT1A. The following applies: known drugs of Table 1; reference not given; cited from earlier work.
[12] abbreviates: read-out: % change in velocity, individual larva 1 (heat map).
The mark [13] stands for this setting: read-out: % change in velocity, individual larva 2 (heat map).
Where [14] appears, read: read-out: % change in velocity, individual larva 3 (heat map).
Setting [15] is: read-out: % change in velocity, individual larva 4 (heat map).
Setting [16] is: read-out: % change in velocity, individual larva 5 (heat map).
[17] abbreviates: read-out: % change in velocity, individual larva 6 (heat map).
[18] abbreviates: read-out: mean velocity change from six fish, Trial 1.
The mark [19] stands for this setting: read-out: mean velocity change from six fish, Trial 2.
Setting [20] is: recombinant, stably expressed human receptor, clemizole analogues.

human H1, sequence (P35367 whole entry): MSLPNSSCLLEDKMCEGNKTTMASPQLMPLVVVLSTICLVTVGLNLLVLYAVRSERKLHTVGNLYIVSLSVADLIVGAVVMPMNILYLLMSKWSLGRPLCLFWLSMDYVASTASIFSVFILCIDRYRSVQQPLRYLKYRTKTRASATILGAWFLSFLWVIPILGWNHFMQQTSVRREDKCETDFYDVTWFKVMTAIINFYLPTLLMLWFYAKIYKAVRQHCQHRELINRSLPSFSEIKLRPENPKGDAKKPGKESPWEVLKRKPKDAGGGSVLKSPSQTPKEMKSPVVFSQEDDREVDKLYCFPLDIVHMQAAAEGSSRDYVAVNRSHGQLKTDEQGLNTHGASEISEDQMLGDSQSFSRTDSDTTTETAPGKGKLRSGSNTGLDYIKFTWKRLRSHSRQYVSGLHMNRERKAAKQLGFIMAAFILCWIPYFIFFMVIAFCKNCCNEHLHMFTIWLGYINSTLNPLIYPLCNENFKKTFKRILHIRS
T2 sequence (P41595 whole entry): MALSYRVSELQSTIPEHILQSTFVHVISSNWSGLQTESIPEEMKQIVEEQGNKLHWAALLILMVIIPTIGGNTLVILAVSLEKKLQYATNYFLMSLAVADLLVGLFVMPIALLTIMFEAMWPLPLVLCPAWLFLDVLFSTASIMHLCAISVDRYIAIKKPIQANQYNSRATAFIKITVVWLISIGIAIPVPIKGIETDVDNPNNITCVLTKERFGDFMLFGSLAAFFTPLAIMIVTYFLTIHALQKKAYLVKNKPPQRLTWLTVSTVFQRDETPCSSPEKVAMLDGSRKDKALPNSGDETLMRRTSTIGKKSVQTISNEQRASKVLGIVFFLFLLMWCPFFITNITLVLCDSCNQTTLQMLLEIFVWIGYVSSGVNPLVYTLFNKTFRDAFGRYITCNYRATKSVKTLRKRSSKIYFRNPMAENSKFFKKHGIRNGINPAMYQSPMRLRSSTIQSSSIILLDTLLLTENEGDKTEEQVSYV

For the compound `CC(N)Cc1cccc(C(F)(F)F)c1.Cl` (single isomer, unassigned; (+)) [norfenfluramine, (+)-Norfenfluramine hydrochloride, reference compound], in the series with scn1lab mutant zebrafish [1] (n = 8), the “larvae with reduced spontaneous seizure events (LFP)” value is recorded as 5 out of 8. Moreover, the Ki is 306 nM on human 5-HT2CR [2]; 18 nM on human 5-HT2BR [4]; 194 nM at human 5-HT2AR [5] (read-out: 5-HT2AR (nM), Table S3). Further, the “effect on seizure-like swim behaviour, commercially available compounds” value in the series on scn1lab mutant zebrafish [3] is “suppressed convulsive swim behaviours in a concentration-dependent manner; also recorded: restore the swimming behaviour or scn1lab mutant larvae to wild-type levels”.
Regarding `CC(C)(C)OC(=O)N1CCN(Cc2nc3ccccc3n2Cc2ccc(Cl)cc2)CC1` [Compound 25], the Ki was found to be 2260 nM at human 5-HT2CR [6], 482 nM at human 5-HT2BR [7], 2380 nM at human 5-HT2AR [8] and 76 nM on human H1. In addition, the “going into solution at screening concentration” value in series [9] is “failed to go into solution”. In addition, the change in vivo at 100 µM in the series with scn1lab mutant zebrafish [3] (setting [12]) is -56%; with scn1lab mutant zebrafish [3] (setting [13]) it was 91.3%; with scn1lab mutant zebrafish [3] (setting [14]), -65.8%; with scn1lab mutant zebrafish [3] (setting [15]) it was 78.7%; in the series on scn1lab mutant zebrafish [3] (setting [16]) it was 35.7%; with scn1lab mutant zebrafish [3] (setting [17]), 153%. Further, the change in vivo at 100 µM in the series on scn1lab mutant zebrafish [3] (setting [18]) and in the series on scn1lab mutant zebrafish [3] (setting [19]) was 42% throughout. The change in vivo at 250 µM in the series with scn1lab mutant zebrafish [3] (setting [12]) is -87%; in the series on scn1lab mutant zebrafish [3] (setting [13]), -92.4%; in the series with scn1lab mutant zebrafish [3] (setting [14]), -76.5%; with scn1lab mutant zebrafish [3] (setting [15]), -56.9%; in the series with scn1lab mutant zebrafish [3] (setting [16]), -100%; in the series on scn1lab mutant zebrafish [3] (setting [17]) it was -23.6%. Moreover, the change in vivo at 250 µM in the series on scn1lab mutant zebrafish [3] (setting [18]) is -82.5%.
For `c1ccc2c(c1)nc(CN1CCCC1)n2CC1CCOCC1` [Compound 15], the Ki was over 10000 nM on human 5-HT2CR [6] (setting [20]), over 10000 nM on human 5-HT2BR [7] (setting [20]), over 10000 nM at human 5-HT2AR [8] (setting [20]) and 865 nM on human H1 (setting [20]). Also, the “binding to any human 5-HT2R” value in the series on human 5-HT2R is listed as “no significant binding”.
As to `c1cn(CC2CCCCC2)c(CN2CCCC2)n1` [Compound 21], the “binding to any human 5-HT2R” value in the series on human 5-HT2R is reported as “no significant binding”. Besides, the change in vivo at 100 µM in the series with scn1lab mutant zebrafish [3] (setting [12]) is 17.5%; in the series on scn1lab mutant zebrafish [3] (setting [13]) it was -5.2%; with scn1lab mutant zebrafish [3] (setting [14]), 11.1%; with scn1lab mutant zebrafish [3] (setting [15]), 8.5%; with scn1lab mutant zebrafish [3] (setting [16]), 13.2%; with scn1lab mutant zebrafish [3] (setting [17]), 24%. Moreover, the change in vivo at 100 µM in the series with scn1lab mutant zebrafish [3] (setting [18]) and in the series with scn1lab mutant zebrafish [3] (setting [19]) was 12.5% throughout. The change in vivo at 250 µM in the series on scn1lab mutant zebrafish [3] (setting [12]) was 52.2%; with scn1lab mutant zebrafish [3] (setting [13]), -11.5%; in the series with scn1lab mutant zebrafish [3] (setting [14]), 80.9%; with scn1lab mutant zebrafish [3] (setting [15]), -44.9%; with scn1lab mutant zebrafish [3] (setting [16]), 37.8%; with scn1lab mutant zebrafish [3] (setting [17]), -14.2%. For the same compound, the change in vivo at 250 µM with scn1lab mutant zebrafish [3] (setting [18]) and with scn1lab mutant zebrafish [3] (setting [19]) was 6.5% each time.
On to `FC1(F)CCC(Cn2c(CN3CCCC3)nc3ccccc32)CC1` [Compound 17], for which the Ki at human 5-HT2CR [6] (setting [20]) was over 10000 nM; at human 5-HT2BR [7] (setting [20]) it was over 10000 nM; at human 5-HT2AR [8] (setting [20]), over 10000 nM; at human H1 (setting [20]), 137 nM. Moreover, the “binding to any human 5-HT2R” value in the series on human 5-HT2R is listed as “no significant binding”.
For the compound `CCNC(C)Cc1cccc(C(F)(F)F)c1` (centres unmarked) [fenfluramine], the Ki on Adrenergic alpha1B is 142 nM; on 5-HT7, 7310 nM; at 5-HT1B, 1840 nM; at 5-HT1D, 1260 nM; on 5-HT6, 9080 nM. Besides, the “suppression of spontaneous seizures in scn1lab zebrafish (earlier work)” value in the series with scn1lab mutant zebrafish [10] is “effective in suppressing spontaneous seizures”. In addition, in series [11], the “patients with heart valve defects” value is recorded as about 25%.
Turning to `CC(N)Cc1ccc2ccoc2c1` (centres unmarked) [Compound 6-APB, 6-(2-aminopropyl)benzofuran], in the series on scn1lab mutant zebrafish [1] (250 µM, 10 min recording epoch), the “effect on frequency of electrographic seizure events (LFP)” value is listed as “significantly suppressed the frequency of electrographic seizure events”. Moreover, the “effect on seizure-like swim behaviour, commercially available compounds” value with scn1lab mutant zebrafish [3] is “suppressed convulsive swim behaviours in a concentration-dependent manner”. Besides, the Ki is 2700 nM on 5-HT transporter; 155 nM at 5-HT7; 1930 nM at human 5-HT2AR [5] (known drugs of Table 1, reference not given, read-out: Ki 5-HT2A, Table 1 known drugs); 1280 nM on 5-HT1A.

The values are drawn from article PMC6798786 (Brain Communications, 2019).
